From the Kinase Knowledgebase extract (Sharma et al. 2016) come the findings set out here.

Structures are written as SMILES.

In this test the target is EGFR (human) (UniProt P00533). The following applies: bt474.
Chain of EGFR (human) (P00533 whole entry, looked up): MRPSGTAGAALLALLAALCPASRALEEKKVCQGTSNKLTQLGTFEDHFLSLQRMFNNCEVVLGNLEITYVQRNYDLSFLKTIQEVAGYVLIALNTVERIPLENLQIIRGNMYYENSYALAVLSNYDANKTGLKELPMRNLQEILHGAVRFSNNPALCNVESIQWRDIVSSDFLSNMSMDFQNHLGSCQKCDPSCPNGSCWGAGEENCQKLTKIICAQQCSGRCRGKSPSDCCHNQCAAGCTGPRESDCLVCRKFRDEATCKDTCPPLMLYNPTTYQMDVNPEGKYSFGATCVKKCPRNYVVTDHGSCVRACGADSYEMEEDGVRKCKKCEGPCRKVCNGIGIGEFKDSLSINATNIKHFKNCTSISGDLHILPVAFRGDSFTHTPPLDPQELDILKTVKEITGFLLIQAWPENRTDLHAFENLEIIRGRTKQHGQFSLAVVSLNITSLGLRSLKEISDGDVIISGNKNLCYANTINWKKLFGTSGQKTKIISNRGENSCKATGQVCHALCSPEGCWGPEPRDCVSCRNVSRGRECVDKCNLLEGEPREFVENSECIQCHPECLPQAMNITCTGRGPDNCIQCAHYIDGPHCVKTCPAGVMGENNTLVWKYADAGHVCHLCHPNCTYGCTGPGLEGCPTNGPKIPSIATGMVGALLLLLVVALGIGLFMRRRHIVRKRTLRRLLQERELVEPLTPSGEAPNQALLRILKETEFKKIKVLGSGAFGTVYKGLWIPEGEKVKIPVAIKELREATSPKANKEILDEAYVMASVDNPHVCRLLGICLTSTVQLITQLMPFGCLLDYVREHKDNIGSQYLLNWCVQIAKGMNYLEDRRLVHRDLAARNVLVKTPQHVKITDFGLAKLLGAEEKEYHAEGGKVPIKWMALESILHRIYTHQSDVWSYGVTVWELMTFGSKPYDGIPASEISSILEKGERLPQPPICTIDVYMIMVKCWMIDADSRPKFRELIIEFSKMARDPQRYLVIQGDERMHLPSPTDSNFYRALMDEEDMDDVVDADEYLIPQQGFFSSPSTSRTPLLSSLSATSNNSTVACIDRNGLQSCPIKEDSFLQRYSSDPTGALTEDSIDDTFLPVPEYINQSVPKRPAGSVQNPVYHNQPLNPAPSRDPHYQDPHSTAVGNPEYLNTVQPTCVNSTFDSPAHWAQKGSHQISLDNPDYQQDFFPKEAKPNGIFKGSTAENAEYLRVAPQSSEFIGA
For orientation: IC50 means the concentration at which inhibition is half-maximal. Read a low IC50 as greater potency in that assay. For `COCC1CCN1C/C=C/C(=O)Nc1cc2c(Nc3ccc(F)c(Cl)c3)ncnc2cc1O[C@H]1CCOC1` (some centres undefined), the IC50 is 2.9 nM. That is a single-digit nanomolar value.

`O=C(/C=C/CN1CCC1CO)Nc1cc2c(Nc3ccc(F)c(Cl)c3)ncnc2cc1OC[C@H]1[C@@H]2COC[C@@H]21` (some centres undefined) returned an IC50 of 10.8 nM.

`O=C(/C=C/CN1CCC1CO)Nc1cc2c(Nc3ccc(F)c(Cl)c3)ncnc2cc1O[C@H]1CCOC1` (some centres undefined) yielded an IC50 of 3.9 nM.

As for `COCCOc1cc2ncnc(Nc3ccc(F)c(Cl)c3)c2cc1NC(=O)/C=C/CN1CC[C@H]1COC`, the IC50 was 5.8 nM.

Regarding `O=C(/C=C/CN1CCC1CO)Nc1cc2c(Nc3ccc(F)c(Cl)c3)ncnc2cc1OC[C@H]1COCCO1` (some centres undefined), the IC50 came to 2.7 nM.

For the compound `COC[C@H]1CCN1C/C=C/C(=O)Nc1cc2c(Nc3ccc(F)c(Cl)c3)ncnc2cc1OCC1CC1`, the concentration for half-maximal inhibition (IC50) worked out at 6.6 nM. This IC50 is about 2.4-fold higher than that of the compound before.

As for `O=C(/C=C/CN1CCC1CO)Nc1cc2c(Nc3ccc(F)c(Cl)c3)ncnc2cc1OC[C@@H]1COCCO1` (some centres undefined), the IC50 amounted to 17.5 nM.

For the compound `COCCOc1cc2ncnc(Nc3ccc(F)c(Cl)c3)c2cc1NC(=O)/C=C/CN1CC[C@@H]1COC`, the half-maximal inhibitory concentration (IC50) turned out to be 1.4 nM.

`CCOc1cc2ncnc(Nc3ccc(F)c(Cl)c3)c2cc1NC(=O)/C=C/CN1CC[C@@H]1COC` had an IC50 of 2 nM.

In turn, `COc1cc2ncnc(Nc3ccc(F)c(Cl)c3)c2cc1NC(=O)/C=C/CN1CCC1CO` (centres undefined) gave a 50% inhibitory concentration (IC50) of 2.3 nM.

For the compound `COC[C@@H]1CCN1C/C=C/C(=O)Nc1cc2c(Nc3ccc(F)c(Cl)c3)ncnc2cc1OCC1CC1`, the concentration for half-maximal inhibition (IC50) is 21.7 nM.

With `O=C(/C=C/CN1CCC1CO)Nc1cc2c(Nc3ccc(F)c(Cl)c3)ncnc2cc1OCC1CC1` (centres undefined), the IC50 was 9.5 nM. Against the preceding compound, the IC50 is about 2.3-fold lower.

`COC[C@@H]1CCN1C/C=C/C(=O)Nc1cc2c(Nc3ccc(F)c(Cl)c3)ncnc2cc1OC`: the IC50 came out at 21.5 nM.

`COC[C@H]1CCN1C/C=C/C(=O)Nc1cc2c(Nc3ccc(F)c(Cl)c3)ncnc2cc1OC` yielded an IC50 of 1.6 nM.
